Where a name gives a salt, the structure may show the parent alone.

From patent publication US20020032581A1, “Single-patient drug trials used with accumulated database: risk of habituation” (priority 2000, published 2002) come the findings set out here.

Data set [1] deals with patient with perennial allergic rhinitis. To be noted: for incidence of sedation: day 4 of treatment.
For data set [2], the system named is patients with allergic rhinitis. Kind of data set: database follow-up of similar patients placed on CM. The data set is classed as in vivo, human. Conditions: year long follow-up. On the procedure:
It is determined that they are a candidate for the individual patient formulary management control system. They are considered a candidate because there are similar patients, e.g. 50, in the database, and 40 of them are placed on CM rather than CL based upon the outcome of single-patient drug trials. […] If CL is found to be more acceptable considering the safety, effectiveness and desirability data of the individual patient questionnaire, the co-pay is the same low rate as for CM.

The subject of another data set is individual patient. Kind of data set: SPAS single-patient abuse potential test (liking score). Conditions: for difference of liking score vs placebo: drug minus placebo; for liking score: on drug, codeine: person, diazepam: person, nicotine: person, on average. How it is done: Single-patient drug kits can be designed to test for “liking scores,” “abuse potential scores,” and patient's desire to re-use the test article compared to placebo and positive controls.
In this example, the abuse potential of the narcotic analgesic codeine is tested. A single-patient trial is conducted in a patient for whom treatment with codeine is deemed appropriate. The patient receives a SPAS test kit containing codeine, an alternative drug, e.g., ibuprofen and a questionnaire designed to elicit the liking score, desirability to re-use test article and abuse potential of the patient to codeine.
In another example, in follow-up to the test above, the clinician compares diazepam to secobarbital in the same patient.

Data set [3] relates to previously tested patients. As to the kind of experiment: follow-up of previously tested similar patients for addiction / smoking. To be noted: for level of addiction on follow-up of similar patients: human, in vivo.
For the next data set, the system named is hyperactive child. As to the kind of experiment: single-patient drug trial of methylphenidate vs placebo (SPAS kit, parent/school questionnaires). It counts as in vivo, human. How it is done: The usefulness of methylphenidate (Ritalin) treatment in a hyperactive child (Minimum Brain Dysfunction or Attention Deficit Disorder) is evaluated.
Consists of instructions, “calendar” packaging for drug and a substantially identical looking placebo to assure appropriate dosing and monitoring of compliance, questionnaires and assessment forms and instructions. Completed forms are sent to a neutral observer who has previously assigned the randomized, multiple-crossover schedule of drug and placebo periods. Only the observer has access to when active drug and placebo are taken and only the observer analyzes the data (exception: open-label or single-blind trials). Results are mailed to the physician and, in this case, parent for use in evaluating the usefulness of the therapy. The physician and parent are contacted, e.g., every three months to provide data on therapies utilized, and perceived outcome, until the condition is resolved. The data is also added to a post-marketing surveillance database for use in evaluating future individual study results, and for access by drug companies, regulatory agencies, and health care organizations.
The questionnaire portion of the kit includes an initial consent form for the parent or guardian to complete. The questionnaire also provides background information on the study and possible side effects associated with the medication. Also included therein is a form for providing relevant patient and family histories. More importantly, the questionnaire, in this case includes a portion for the weekly input by parents/guardians and school observers for answers to questions relating to the drug evaluation. Physician questionnaires are similarly arranged.
The kit described in Example 1 is used to again evaluate the usefulness of methylphenidate (Ritalin) treatment in a hyperactive child except that all interested parties have the benefit of a set of data generated from a pool of patients having a similar need for treatment. […]

The subject of data set [4] is patients with the same disorder (hyperactive child). As to the kind of experiment: pooled SPAS database and follow-up of patients continued on methylphenidate 40 mg daily. The data set is classed as in vivo, human. On the procedure:
All results obtained from the data are compared against the results provided by data amassed from a pool of about 200 patients with the same disorder. If, of these 200 patients, 55 experience encouraging results (along with the current patient) they are continued on 40 mg daily treatment. If, of these 55 patients, 5 are lost to follow-up, with 50 remaining for prospective evaluation, the physician continues the patient on 40 mg methylphenidate daily based solely on the isolated SPAS single-patient drug trial results. The physician then reviews the pooled data on the 50 patients. This will be done to understand under what circumstances this individual patient is likely to continue to show benefit from methylphenidate 40 mg treatment, and what conditions lead to treatment failure.
If for example, the pool of 50 patients who continue treatment have the following scores following the original SPAS testing:
All 50 patients are followed up by telephone interview monthly for nine months or more, and outcomes are prospectively documented.

The subject of the next data set is hypertensive person. As to the kind of experiment: double-blind single-patient trial of sustained release verapamil vs sustained release propranolol. It counts as in vivo, human. To be noted: for mean systolic blood pressure increases: verapamil 240 mg once daily vs propranolol 180 mg once daily; for mean systolic blood pressure increases / mean diastolic pressure: little difference between drugs; for mean diastolic pressure: throughout the six week trial. How it is done:
In this example, the validity of using a sustained release formulation of verapamil 240 mg once daily as a therapeutic alternative to sustained release propranolol 180 mg once daily in a hypertensive person is shown. The trial during which the two medications are randomly administered in a double-blind manner is six weeks. The questionnaire used is set up in a manner similar to that described in above examples except that the questions elicit information related to the disease of hypertension. Blood pressure and adverse event reports are taken daily by the patient. […] Sleepiness is reported at equal rates for both drugs. All values are statistically insignificant and the therapeutic alternative selection is objectively validated.

Setting [5] is: pool of 50 patients who continue treatment.

`CCOC(=O)N1CCC(=C2c3ccc(Cl)cc3CCc3cccnc32)CC1` [CL, loratidine] had an incidence of sedation in data set [1] of 2 on a 3 point scale.

Turning to `CN(C)CCC(c1ccc(Cl)cc1)c1ccccn1` (stereo not shown) [CM, chlorpheniramine maleate], the “patient's symptoms on reevaluation” value in data set [1] (6 and 12 months post-initiation of CM treatment) was “well maintained”. Besides, the incidence of sedation in data set [1] turned out to be 2 on a 3 point scale. For the same molecule, the “most bothersome symptom, sneezing” value in data set [1] (person, dust mite protein allergy) is “similarly and effectively controlled”. The patients well maintained in data set [2] is 37 of the 40.

On to `COc1ccc2c3c1O[C@H]1[C@@H](O)C=C[C@H]4[C@@H](C2)N(C)CC[C@@]341` [codeine], for which the “difference of liking score vs placebo” value in the data set on individual patient was 2 units. In addition, the liking score in the data set with individual patient is reported as 3 out of 5. For the same molecule, the became addicted in data set [3] (Caucasian female patients 30 to 40 years with 0 unit difference) is recorded as 10 out of 1250; in data set [3] (black male patients 40 to 50 years old with 2-unit difference, treated with codeine), 25 out of 600; in data set [3] (similar patients with 3 unit differences), 50 out of 110.

`CN1C(=O)CN=C(c2ccccc2)c2cc(Cl)ccc21` [diazepam]: in the data set with individual patient, the “difference of liking score vs placebo” value was 0 units and the liking score is listed as 4 out of 5. In addition, the “level of addiction on follow-up of similar patients” value in data set [3] is given as “comparatively low level of addiction”.

Consider `COC(=O)C(c1ccccc1)C1CCCCN1` (stereo not shown) [methylphenidate], for which, in the data set on hyperactive child (40 mg daily as 10 mg four times daily, periods when methylphenidate is given vs placebo), the “patient's attention span” value was “improved substantially”. Besides, the teacher comments entry in the data set on hyperactive child (during methylphenidate dosing periods) is listed as “corroborate improved attention span”. Also, the sleep patterns entry in the data set on hyperactive child (during methylphenidate periods, 40 mg daily) was “statistically altered”. Also, the “show severe episodes of bizarre behaviors” value in data set [4] (patients with statistically altered sleep patterns on SPAS testing, within two months) is given as 90%. The “patients experience grand mal seizures” value in data set [4] (patients with statistically altered sleep patterns, within two months) is given as “two”. Also, in data set [4] (setting [5]), the “Sleep Patterns: have been statistically altered” value is on record as 50%, the “Sleep Patterns: have not been statistically altered” value was 50%, the “Teacher Comments: corroborate improved attention span” value is on record as 80% and the “Teacher Comments: do not corroborate improved attention span” value is given as 20%. In addition, the “Attention Span: have substantial improvement” value in data set [4] (pool of 50 patients who continue treatment, 40 mg daily) amounted to 100%.

Consider `CN1CCCC1c1cccnc1` (stereo not shown) [nicotine], for which, in the data set on individual patient, the “difference of liking score vs placebo” value stood at 3 units and the liking score is reported as 4 out of 5. The are smokers in data set [3] (female Caucasian patients 15 to 17 years old with similar 3-unit difference) was 820 out of 975.

For `CC(C)NCC(O)COc1cccc2ccccc12` (stereo not shown) [propranolol], the sleepiness reported result in the data set with hypertensive person (human, in vivo) is on record as “equal rates”. Moreover, in the data set on hypertensive person (six week trial), the “mean systolic blood pressure increases” value is recorded as 3%. Also, the mean diastolic pressure entry with hypertensive person is “essentially stable”.

In the case of `C=CCC1(C(C)CCC)C(=O)NC(=O)NC1=O` (stereo not shown) [secobarbital], the “difference in liking scores, diazepam compared to secobarbital” value with individual patient (same patient) was “greater addiction potential”. In data set [3], the “level of addiction on follow-up of similar patients” value is listed as “high level of addiction”.

For `COc1ccc(CCN(C)CCCC(C#N)(c2ccc(OC)c(OC)c2)C(C)C)cc1OC` (stereo not shown) [verapamil], in the data set on hypertensive person (six week trial, both drugs), the sleepiness reported result is recorded as “equal rates”. Moreover, the “mean systolic blood pressure increases” value with hypertensive person (six week trial) worked out at 3%. For the same molecule, the mean diastolic pressure entry with hypertensive person is “essentially stable”.
